Legend:
ICAM-1 = assay: ELISA of ICAM-1 in RPE-choroid complex after laser injury; assay type: in vivo, rat; details: 3 days after laser injury; 0.3 mg/kg daily i.p.; mean±SEM
Description: (§1) Brown-Norway rats were anesthetized with 0.2-0.3 ml of a 50:50 mixture of 100 mg/ml Ketamine and 20 mg/ml Xylazine. Pupils were dilated with 5.0% Phenylephrine and 0.8% Tropicamide. CNV was induced with a 532 nm laser (Oculight GLx, Iridex, Mountain View, Calif.). Six laser spots (150 mW, 100 μm, 100 msec) were placed in each eye using a slit-lamp delivery system and a cover glass as a contact lens. Production of a bubble at the time of laser confirmed the rupture of the Bruch's membrane.
(§2) To block VAP-1, a specific VAP-1 inhibitor, Compound II described above, was used (R-tech Ueno, Ltd., Tokyo, Japan). […]
(§3) The RPE-choroid complex was carefully isolated from eyes 3 days after photocoagulation and placed in 300 μl of lysis buffer supplemented with protease inhibitors and sonicated. The lysate was centrifuged at 15,000 rpm for 15 minutes at 4° C. and the levels of TNF-α, monocyte chemotactic protein (MCP)-1, and intercellular adhesion molecule (ICAM)-1 were determined with rat TNF-α (BD bioscience), MCP-1 (BD bioscience) and ICAM-1 (R&D Systems, Minneapolis, Minn.) enzyme-linked immunosorbent assay (ELISA) kits according to the manufacturers' protocols. Total protein concentration was determined using a Bio-Rad Protein Assay Kit (Bio-Rad Laboratories Hercules, Calif.) and dilutions of bovine serum albumin (Bio-Rad Laboratories) as standards.

[1] = target: T1, monoamine oxidase (MAO)-A (Homo sapiens, UniProt P21397); assay: IC50 against MAO-A; assay type: biochemical
T1 sequence (P21397 1-527): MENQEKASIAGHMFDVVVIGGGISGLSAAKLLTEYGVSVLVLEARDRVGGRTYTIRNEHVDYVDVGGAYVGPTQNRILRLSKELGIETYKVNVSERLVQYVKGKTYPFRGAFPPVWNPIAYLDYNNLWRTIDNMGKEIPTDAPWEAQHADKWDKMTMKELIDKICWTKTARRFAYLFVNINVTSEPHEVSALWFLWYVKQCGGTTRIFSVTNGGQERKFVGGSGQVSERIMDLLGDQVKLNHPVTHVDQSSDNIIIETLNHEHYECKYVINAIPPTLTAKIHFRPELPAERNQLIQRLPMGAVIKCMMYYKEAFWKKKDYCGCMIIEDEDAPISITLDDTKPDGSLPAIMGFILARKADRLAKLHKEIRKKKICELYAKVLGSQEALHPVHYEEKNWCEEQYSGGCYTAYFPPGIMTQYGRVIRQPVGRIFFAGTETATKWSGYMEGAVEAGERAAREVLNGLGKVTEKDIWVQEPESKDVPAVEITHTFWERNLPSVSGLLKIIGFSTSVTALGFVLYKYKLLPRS

MCP-1 = assay: ELISA of MCP-1 in RPE-choroid complex after laser injury; assay type: in vivo, rat; details: 3 days after laser injury; 0.3 mg/kg daily i.p.; mean±SEM
Description: as §1, §2, §3

[2] = target: T2, human semicarbazide-sensitive amine oxidase (SSAO) (Homo sapiens, UniProt Q16853); assay: IC50 against human SSAO; assay type: biochemical
T2 sequence (Q16853 1-763): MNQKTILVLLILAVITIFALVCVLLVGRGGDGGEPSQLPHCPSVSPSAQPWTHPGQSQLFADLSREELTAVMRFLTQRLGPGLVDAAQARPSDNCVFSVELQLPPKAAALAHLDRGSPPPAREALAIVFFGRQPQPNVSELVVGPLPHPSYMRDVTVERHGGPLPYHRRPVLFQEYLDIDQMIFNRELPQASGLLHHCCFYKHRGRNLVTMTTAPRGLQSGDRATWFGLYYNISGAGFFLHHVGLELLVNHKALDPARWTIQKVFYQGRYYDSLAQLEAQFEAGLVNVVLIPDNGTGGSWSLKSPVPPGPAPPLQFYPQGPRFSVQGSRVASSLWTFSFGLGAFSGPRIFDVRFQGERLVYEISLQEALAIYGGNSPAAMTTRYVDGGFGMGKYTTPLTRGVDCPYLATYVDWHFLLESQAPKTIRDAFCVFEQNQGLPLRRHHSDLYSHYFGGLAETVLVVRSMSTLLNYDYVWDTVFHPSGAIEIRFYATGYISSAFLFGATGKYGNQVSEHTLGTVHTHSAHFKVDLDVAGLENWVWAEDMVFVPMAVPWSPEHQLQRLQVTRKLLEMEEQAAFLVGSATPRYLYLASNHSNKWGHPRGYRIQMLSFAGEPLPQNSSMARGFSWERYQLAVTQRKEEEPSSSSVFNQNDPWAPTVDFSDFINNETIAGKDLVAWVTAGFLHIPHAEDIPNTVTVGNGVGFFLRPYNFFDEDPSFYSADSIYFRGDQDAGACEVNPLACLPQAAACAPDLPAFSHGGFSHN

[3] = tested on: IL-1β-induced corneal angiogenesis in BALB/c mice; assay: IL-1β-induced corneal angiogenesis; assay type: in vivo, mouse; details: day 6 after pellet implantation; 0.3 mg/kg daily i.p.
Description: BALB/c mice were anesthetized by intrapcritoneal (i.p.) injection of pentobarbital sodium (60 mg/kg). Hydron pellets (0.3 μl) containing 30 ng mouse IL-1β (401-ML; R&D Systems) were prepared and implanted into the corneas. Pellets were positioned 1 mm from the corneal limbus. Implanted eyes were treated with Bacitracin ophthalmic ointment (E. Fougera & Co.) to prevent infection.
To block VAP-1, mice received daily i.p. injections of a specific VAP-1 inhibitor, Compound II (R-tech Ueno Ltd., Tokyo, Japan) as described above. A daily dose of 0.3 mg/kg was administered at day 0 and continued until the sixth day after implantation. Two, four and six days after implantation, digital images of the corneal vessels were obtained and recorded using OpenLab software version 2.2.5 (Improvision Inc.) with standardized illumination and contrast and were saved onto disks. The quantitative analysis of new vessel growth in the mouse corneas was performed using Scion Image software (version 4.0.2; Scion Corp.).

- IC50 [1]: > 10000 nM
- IC50 [2]: 7 nM
SMILES: CC(=O)Nc1nc(CCc2ccc(NC(=N)NN)cc2)c(Cc2ccc(S(C)(=O)=O)cc2)s1 [Compound II]
- ICAM-1 protein level in RPE-choroid complex (ICAM-1): 57 ± 2 ng/mg
- MCP-1 protein level in RPE-choroid complex (MCP-1): 662 ± 52 pg/mg
- neovascular area relative to control mice (IL-1β alone or IL-1β+vehicle) [3]: about half
